This is an account of results in article PMC10913065, “Rapid sp^3-Enriched Scaffold Generation via a Selective Aziridine Amide Ring-Opening Reaction” (The Journal of Organic Chemistry, 2024).

Values after ≈ are worked out from the molar mass of the structure shown.

A short description of the data set: Kinetic solubility assay (adapted shake flask method, McIlvaine buffer). It is filed as physicochemical. The note with it: pH 6.8, aqueous buffer, kinetic from dmso stock. On the procedure: 10. Kinetic Solubility assay
Kinetic Solubility assay protocol
Adapted standard shake flask method to run in 1 mL 96-deep-well plates at a concentration of 100 µM in McIlvaine Buffer at pH values of 6.8 from 10 mM DMSO stock solutions.
Compounds are prepared in triplicate and incubated in buffer at room temperature for 18 hours while shaking at 700 RPM. After incubation the 96-deep-well plate is centrifuged at 5000 g for 10 minutes, half of the volume is transferred to another deep well plate and centrifuged again at 5000 g for 10 minutes. 200 µL are transferred from each well to a Greiner Bio-one 200 µL 96-well V-bottom plate and sealed. A six-point calibration curve is prepared for each compound ranging from 100 µM down to 0.5 µM. All samples are analyzed via UV-UHPLC on an Agilent 1290 Infinity (binary pump, auto-sampler, column compartment at 55 °C, and PDA) with a Phenomenex Kinetex EVO C18, 50 x 1 mm, 1.7 µm, 100 Å column, at 0.5 mL. Injections of 3 µL are analyzed with gradient elution using Milli-Q water with 0.05% trifluoroacetic acid (A1) and acetonitrile with 0.05% trifluoroacetic acid (B1) from 95:5 A1/B1 to 5:95 A1/B1 over 1.3 minutes with a 0.2 minute hold at 5:95 A1/B1. Wavelengths at 215 nm and 254 nm are monitored, peaks are integrated, and the peak area and peak height are used with linear regression analysis from the calibration curves to determine the solubility values.6 Kinetic Solubility assay data
A kinetic solubility for d, e, f, and g was calculated in the following Table.
Compound Kinetic solubility (µM, pH=6.8)
Table S7. Kinetic solubility for representative compounds.

The mark [1] stands for this setting: pH=6.8, McIlvaine Buffer, 100 µM from 10 mM DMSO stock, room temperature, 18 hours, triplicate.

Consider `Cc1ccccc1Oc1ccccc1NC(=O)c1ccccc1` [d, reference compound], for which the solubility (kinetic) (usually solubility judged after dilution from a stock solution rather than from solid) at 18 h (at neutral pH) was found to be 5.74 µM (≈ 1.74 µg/mL). In the case of `Cc1ccccc1O[C@H]1CCNC[C@@H]1NC(=O)c1ccccc1` [e], the kinetic solubility at 18 h came to 79.1 µM (≈ 24.5 µg/mL) (at neutral pH) and 90.67 ± 0.32 µM (≈ 28.1 µg/mL) under setting [1].

For the compound `Cc1ccccc1O[C@H]1CNC[C@@H]1NC(=O)c1ccccc1` [f], the solubility (kinetic) at 18 h stood at 90.7 µM (≈ 26.9 µg/mL) (at neutral pH) and 79.07 ± 0.44 µM (≈ 23.4 µg/mL) under setting [1]. As for `Cc1ccccc1O[C@H]1CCCNCC[C@@H]1NC(=O)c1ccccc1` [g], the solubility (kinetic) at 18 h (at neutral pH) stood at 92.2 µM (≈ 31.2 µg/mL).
